Assay results: ChEMBL document CHEMBL1147315, “A new spermatostatic glycoside from the soft coral Sinularia crispa” (J Nat Prod, 1989)
Calls of active or inactive are those of the source. The calls are words filed in the database; no cut-off is given here.

System: Spermatozoa
Assay: Spermatostatic activity in rat cauda epididymal spermatozoa assessed as motility effect at 0.5 mg/mL for 30 mins by microscopic method
Type: functional, cell-based

SMILES: C=C(CC[C@@H](C)[C@H]1[C@@H](O)C[C@H]2[C@@H]3[C@@H](O)C=C4C[C@@H](O[C@@H]5O[C@@H](C)[C@@H](OC(C)=O)[C@@H](O)[C@@H]5O)CC[C@]4(C)[C@H]3CC[C@]12C)C(C)C
- Activity: Active
